Where “and” joins values, the source holds several entries; their conditions need not be identical. Equal values may be shown once. Where a name gives a salt, the structure may show the parent alone. Read-outs that look alike come from different tables or passages of the source.
Tests used:
[1] = tested on: V79 Chinese hamster lung cells; conditions: intracellular concentration for an SER of 1.6, hypoxic cells; no experiment described; cited from earlier work
[2] = in vivo; cited from earlier work
hypoxic cells = conditions: cited from earlier work
[3] = Acute aerobic and hypoxic cytotoxicity (colony formation); assay type: cell-based, Chinese hamster; conditions: chinese hamster, aerobic v79 cells, V79 cells, aerobic, 1 hour, 37° C.; 50% inhibition of clonogenicity
Method: (§1) Samples of V79 Chinese hamster lung cells used in the following experiments were prepared as follows. V79 cells, exponentially growing as monolayer cultures in RPMI 1640 medium (Mediatech) supplemented with 10% fetal calf serum, were trypsinized, centrifuged for 5 min, harvested, then suspended in 25 ml Erlenmeyer flasks fitted with rubber caps at 5×10^5 cells/ml (5 ml). Individual flasks either were shaken (100 rpm) at 37° C. under aerobic conditions or made hypoxic by gassing with a 95% N2 (nitrogen)/5% CO2 (carbon dioxide) humidified gas mixture for 1 hour.
(§2) To determine the fraction of surviving cells, samples were removed, diluted and plated to provide 2×10^2 to 2×10^4 cells/well on 60 mm Linbro multi-well plates (Flow Laboratories, McLean, Virginia). The plates were incubated at 37° C. for 6 days, stained with crystal violet and examined for colony formation. Colonies of 50 cells or greater were counted. Each plotted point in FIGS. 1 and 2 represent the mean of three or four replicate experiments.

[4] = tested on: V79 Chinese hamster lung cells; experiment: as above; assay type: cell-based; conditions: V79 cells, 1 hour, 37° C.; for IC50: Cricetulus griseus, V79, 1 h, hypoxia, 50% inhibition of clonogenicity
Method: as §1, §2

[5] = tested on: V79 Chinese hamster lung cells; experiment: Radiosensitization of V79 cells; assay type: cell-based; conditions: for EC (SER 1.6): Cricetulus griseus; for maximum SER value: hypoxic V79 cells, 100 μM for THNLA-1, non-toxic concentrations for others; for Therapeutic index (ThI): IC50/A,1h /C1.6: in vitro, V79 cells, hydrochloride
Method: as §1
Radiosensitization studies were performed on V79 cells in a manner similar to the acute toxicity experiments, except that the survival fraction was determined after a predetermined radiation dose. […] One Gy is equal to 100 rads, wherein one rad is the quantity of ionizing radiation that results in the absorption of 100 ergs of energy per gram of irradiated material. Hypoxia was maintained throughout irradiation. […] Sensitization enhancement ratios (SER) were determined at a 10% survival level. […] The plotted points in FIGS. 3 and 4 represent the mean of 2 or 3 replicate experiments.

V79 cells [6] = experiment: Isoeffective to the oxygen dose (IsD); assay type: cell-based, Chinese hamster; conditions: Cricetulus griseus, V79, 1 h
Source text: The survival fraction under hypoxic conditions (plotted versus compound concentration) meets the aerobic survival fraction (radiation toxicity) at the IsD. The IsD value is a useful indicator of the overall potency of a compound as a sensitizer and cytotoxin of hypoxic cells. IsD is especially useful when comparing different compounds for hypoxic cytotoxicity and radiosensitizing efficacy.
FIGS. 5 and 6 illustrate the IsD at 7.5 Gy (FIG. 5A) and 20 Gy (FIG. 5B). FIGS. 5A and 6A include a comparison to the prior art NLA-1 compound. V79 cells were irradiated at 7.5 Gy or 20 Gy after a 1 hour exposure under hypoxia (symbols) or air (straight line), at various drug concentrations. No toxicity or radiosensitization for any tested compound was observed under aerobic conditions over the tested concentration ranges. IsD values were calculated from the intersections of the survival fractions of the hypoxic curves with the survival fraction in air. All data points in FIGS. 5 and 6 represent the mean of two replicate experiments.

[7] = Partition coefficient in octanol/water; assay type: physicochemical
Method: The partition coefficient of the hypoxia selective cytotoxins of the present invention were determined by the method of T. Fujita et al., J. Am. Chem. Soc., 86, 5175-5180 (1964), incorporated herein by reference.

V79 cells [8] = experiment: Chemosensitization to L-PAM or cis-DDP in V79 cells; assay type: cell-based, Chinese hamster; conditions: V79 cells
Method: L-PAM, also known as phenylalanine mustard and available from Sigma Chem. Co., St. Louis, Mo., first was dissolved in an ethanolic solution of HCl (0.5N). The ethanolic HCl solution was buffered with propylene glycol in a 1:9 ratio of ethanolic HCl solution to propylene glycol, and finally diluted 100 fold with suspension medium. cis-DDP, a platinum-based chemotherapeutic agent available from Sigma Chem. Co., St. Louis, Mo., was dissolved in water to a predetermined concentration.
Experiments using a simultaneous addition of the sensitizer and chemotherapeutic agent for 1 hour at 37° C. under aerobic conditions were also performed.
In all experiments, controls for the hypoxic cytotoxicity of the sensitizer and the toxicity of the chemotherapeutic alone were included. Survival curves were normalized for the hypoxic cytotoxicity of sensitizer in order to determine the dose modification factor (DMF), i.e., the ratio of chemotherapeutic agent concentrations required to reduce cell survival to a predetermined level (e.g., 0.5) alone or in combination with a sensitizer. Synergism between the chemotherapeutic agent and the chemosensitizer was determined using the fractional product concept which is applied in instances of independent action of drugs, or by isobologramic analysis. The results of the chemosensitization studies are illustrated in FIGS. 12-15.

calf thymus Topo I = target: T1, calf thymus Topo I (Bos taurus, UniProt F1MN93); experiment: Topoisomerase I interaction (relaxation of supercoiled DNA); assay type: biochemical
T1 construct: purchased TopoGEN, Inc., Columbus, Ohio; host or cells: calf thymus
T1 sequence (F1MN93 1-767): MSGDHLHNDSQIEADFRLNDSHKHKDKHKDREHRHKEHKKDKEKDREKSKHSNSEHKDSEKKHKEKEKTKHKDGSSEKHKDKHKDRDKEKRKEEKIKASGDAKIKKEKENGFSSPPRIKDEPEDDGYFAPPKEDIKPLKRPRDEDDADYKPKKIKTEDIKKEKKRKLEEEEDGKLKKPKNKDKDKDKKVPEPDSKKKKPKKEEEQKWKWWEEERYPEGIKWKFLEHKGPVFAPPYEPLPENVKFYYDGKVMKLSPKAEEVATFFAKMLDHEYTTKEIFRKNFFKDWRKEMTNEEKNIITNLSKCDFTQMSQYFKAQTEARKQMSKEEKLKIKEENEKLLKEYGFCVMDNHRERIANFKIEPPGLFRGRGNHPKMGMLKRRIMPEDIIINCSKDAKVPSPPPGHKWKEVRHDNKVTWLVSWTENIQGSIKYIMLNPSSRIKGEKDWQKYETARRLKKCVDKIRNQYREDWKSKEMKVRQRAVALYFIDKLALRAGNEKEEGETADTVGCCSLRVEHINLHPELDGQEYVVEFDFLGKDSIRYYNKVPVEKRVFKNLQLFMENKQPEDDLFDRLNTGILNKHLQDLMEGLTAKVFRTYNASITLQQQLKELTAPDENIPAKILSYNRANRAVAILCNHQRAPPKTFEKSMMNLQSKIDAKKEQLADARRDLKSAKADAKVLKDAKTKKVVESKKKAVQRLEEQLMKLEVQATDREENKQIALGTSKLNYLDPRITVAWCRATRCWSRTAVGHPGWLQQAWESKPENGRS
Method: In particular, a Topo I drug screening kit (TopoGEN, Inc., Columbus, Ohio) was used to assay the topoisomerase I THNLA-1 interaction. […] Camptothecin is a Topoisomerase I poison used as an anticancer drug. Camptothecin stabilizes the Topo I-DNA cleavable complex, and therefore prevents the resealing of DNA by Topo-I.
Individual reaction mixtures were heated for 30 minutes at 37° C. on a heating block, and then 2 μl of 10% SDS - proteinase K solution was added to each reaction mixture. The resulting reaction mixtures then were heated for an additional 30 minutes at 37° C. The reaction mixtures in a loading buffer were extracted with CHCl3 prior to submarine electrophoresis on a 1% agarose gel. The DNA bands were observed visually by staining with ethidium bromide (0.5 μg/ml).

human Topo II = experiment: Topoisomerase II interaction (decatenation of kinetoplast DNA); assay type: biochemical; conditions: up to 1 mM
Method: A Topo II assay kit (TopoGEN, Inc., Columbus, Ohio) also was used to assay the topoisomerase II--THNLA-1 interaction. […] Individual reaction mixtures were heated for 30 minutes at 37° C. on a heating block, and then 2 μl of a 10% SDS-proteinase K solution was added to each reaction mixture. The resulting reaction mixtures then were heated for an additional 30 minutes at 37° C. After addition of a 0.1 volume of loading buffer, the reaction mixtures were extracted with CHCl3 prior to submarine electrophoresis on a 1% agarose gel containing ethidium bromide (0.5 μg/ml).

supercoiled DNA = experiment: DNA intercalation by agarose gel electrophoresis (mobility of supercoiled DNA); assay type: binding; conditions: electrophoretic gel, up to millimolar concentrations
Source text: An agarose gel electrophoresis technique was used to determine whether THNLA-1 intercalates DNA. Compounds that strongly intercalate DNA retard DNA mobility during agarose gel electrophoresis due to unwinding and extension of the dsDNA.

DNA = conditions: cited from earlier work
mammalian cell cultures = conditions: cited from earlier work
[9] = cited from earlier work
[10] = V79, 1 h, read-out: Hypoxic radiosensitizing potency: C1.6, concentration yielding an SER of 1.6, hypoxic V79 cells
[11] = V79, read-out: Intracellular concentration at C1.6: C1.6i, hypoxic radiosensitization, V79 cells (tables)

O=[N+]([O-])c1nccn1CC(O)CN1CCCCC1 (centres unmarked) [pimonidazole]
C1.6i of comparison sensitizers [1]: 0.69 mM
dose administrable to humans relative to MISO [2]: total dose limitation similar to MISO

O=[N+]([O-])c1nccn1CC(O)CN1CC1 (centres unmarked) [RSU-1069]
activity relative to MISO (hypoxic cells; experimental systems): substantially greater activity than MISO
fold lower toxic concentration for hypoxic versus aerobic cells (hypoxic cells; in vitro): ~100 fold

O=C(Cn1ccnc1[N+](=O)[O-])NCCO [etanidazole]
dose administrable to humans relative to MISO [2]: about a threefold higher dose than MISO
neurotoxicity [2]: less neurotoxic

O=[N+]([O-])c1nccn1CCCNc1c2c(nc3ccccc13)CCC2 [NLCPQ-1, 9-[3-(2-nitro-1-imidazolyl)propylamino]cyclopenten[b]quinoline hydrochloride]
IC50 at 1 h [3]: 170 µM
IC50 [4]: 22 µM
EC (SER 1.6) [5, 10]: 7 µM
EC (SER 1.6) [5, 11]: 209 µM
maximum SER value [5]: equal to OER
Therapeutic index (ThI): IC50/A,1h /C1.6 [5]: 25
EC (isoeffective to oxygen at 7.5 Gy) (V79 cells [6]; read-out: Isoeffective to the oxygen dose at 7.5 Gy: IsD(7.5)): 25.5 µM
Partition coefficient in octanol/water: PCo/w [7]: 0.30
logP ([7]; read-out: Partition coefficient in octanol/water: PCo/w (converted)): -0.523
chemosensitization to L-PAM or cis-DDP (V79 cells [8]): strong chemosensitizers
solubility (Water solubility): ~11 mM

CN1CCc2nc3ccccc3c(NCCCn3ccnc3[N+](=O)[O-])c2C1 [MeN-THNLA-1, 10-[3-(2-nitroimidazolyl)propylamino]-2-methyl-1,2,3,4-tetrahydro-benzo[b]-1,6-naphthyridine hydrochloride]
IC50 at 1 h [3]: 426 µM
IC50 [4]: 196 µM
Hypoxic selectivity (differential aerobic/hypoxic toxicity): IC50/A,1h /IC50/H,1h [4]: 2.2
EC (SER 1.6) [5, 10]: 59 µM
EC (SER 1.6) [5, 11]: 586 µM
maximum SER value [5]: equal to OER
Therapeutic index (ThI): IC50/A,1h /C1.6 [5]: about 7
relative radiosensitizing potency ([5]; on the basis of C1.6i values): more potent radiosensitizer than NLA-1, miso and pimonidazole
EC (isoeffective to oxygen at 20 Gy) (V79 cells [6]; read-out: Isoeffective to the oxygen dose at 20 Gy: IsD): ~127 µM
Partition coefficient in octanol/water: PCo/w ([7]; hydrochloride): 0.40 and 0.41
formation of nicked DNA with Topo I (calf thymus Topo I; in Topo I test): no formation of nicked DNA was observed
inhibition of Topo I-induced relaxation (calf thymus Topo I; supercoiled DNA): only partially inhibited Topo I
inhibition of Topo II-induced decatenation of kinetoplast DNA (human Topo II): did not inhibit the action of Topoisomerase II on kinetoplast DNA
effect on mobility of supercoiled DNA (supercoiled DNA): do not affect the mobility of supercoiled DNA
solubility (Water solubility): ~20 mM

CN(C)CCCNc1c2ccccc2nc2cccc([N+](=O)[O-])c12 [nitracrine, 1-nitro-acridine]
DNA dissociation kinetics / intercalation (DNA): faster dissociation kinetics from DNA than the other nitroacridine isomers
potency as radiation sensitizer / hypoxia selective cytotoxin (mammalian cell cultures): potent hypoxia selective cytotoxin and a radiation sensitizer
potency as radiation sensitizer / hypoxia selective cytotoxin (mammalian cell cultures; listed as 1-nitracrine): twenty times more potent as a sensitizer than other nitracrine isomers tested
metabolism in vivo [9]: rapid metabolism

COCC(O)Cn1ccnc1[N+](=O)[O-] (centres unmarked) [MISO]
C1.6i of comparison sensitizers [1]: 0.70 mM
neurotoxicity [2]: significant neurotoxicity

Source: patent US5958947A, “DNA-affinic hypoxia selective cytotoxins” (priority 1996, dated 1999)
